Laboratory results as given in patent US6924311B2, “Methods for affecting various diseases utilizing LXR compounds” (X-Ceptor Therapeutics, Inc., priority 2001, dated 2005).

Key:
CYP7a mRNA = assay: Liver CYP7a mRNA by quantitative PCR in treated mice; type: in vivo; settings: for CYP7a mRNA induction: daily oral 7 days
From the text: The CYP7a gene encodes cholesterol 7α-hydroxylase, the rate-limiting enzyme in the catabolic conversion of cholesterol to bile acids. Increases in CYP7a activity stimulate the conversion of cholesterol to bile acids and may reduce plasma cholesterol levels by depleting hepatocytes of cholesterol. Intracellular cholesterol depletion should stimulate the uptake of LDL particles from the plasma by liver hepatocytes. To determine the contribution of LXRα and LXRβ to the induction of CYP7a by LXR agonists, Compound 1 was administered for seven days by daily oral gavage in a sesame oil/ethanol vehicle via a 1-cc syringe fitted with a 20G disposable feeding needle. Compound was solvated in ethanol (5% final volume) and brought up to final volume with sesame oil (Sigma, St. Louis, Mo.). Three hours after the final dose (day 7) animals were sacrificed, livers were harvested, and total liver RNA was isolated using RNeasy kits (QIAGEN Inc.) according to the supplier's total RNA isolation procedure. The RNA samples were further treated with deoxyribonuclease 1 to eliminate contaminating genomic DNA. CYP7a mRNA levels were than analyzed by real-time based quantitative PCR using Perkin Elmer ABI Prism 7700 and Sequence Detection System software (Perkin Elmer). […] As expected no induction is observed in LXRαβ−/− mice.

[1] = Plasma glucose levels in db/db mice; type: in vivo; settings: 50 mg/kg daily oral gavage, 14 days
From the text: Cardiovascular disease is one of the major complications of type II diabetes. […] A mouse model of type II diabetes is the diabetic (db/db) mouse. [See Coleman, D. L. (1978), Obese and Diabetes: Two Mutant Genes Causing Diabetes-Obesity Syndrom In Mice. Diabetologia 14, 141-148; and Hong Chen, Olga […], Louis […], Elizabeth A. Woolf, Xun Weng, Stephen J. Ellis, […], Janice Culpepper, Karen J. More, Roger E. Breitbart, Geoffrey M. Duyk, Robert I. and Jay P. Morgenstern (1996), Evidence That The Diabetes Gene Encodes The Leptin Receptor: Identification Of A Mutation In The Leptin Receptor In db/db Mice, Cell 84, 491-495.] […] To examine the ability of LXR agonists to modulate blood glucose levels, db/db mice were treated for 14 days with 50 mg compound/kg body weight of the LXR agonist Compound 1. As a positive control animals were also treated with 30 mg compound/kg body weight of the retinoid X receptor (RXR) agonist. […] Both compounds were administered by daily oral gavage in a sesame oil/ethanol vehicle via a 1-cc syringe fitted with a 20G disposable feeding needle. […] Plasma glucose levels were determined using a colorimetric enzymatic assay adapted to a 96 well plate format (Sigma, St. Louis, Mo.). […] The absorbance of the samples and standards were read using a Multiskan plate reader.

ABCA1 mRNA = ABCA1 mRNA induction in cultured peritoneal macrophages; type: cell-based, mice; settings: 24 hours
From the text: The individual contributions of both receptors to macrophage gene expression were examined by first measuring the amount of mRNA encoding LXRα and LXRβ in thioglycolate-elicited peritoneal macrophages obtained from mixed wildtype mice. Thioglycolate-elicited peritoneal macrophages were isolated from mice 4 days after peritoneal injection of thioglycolate media. Peritoneal macrophages were harvested by lavage of the peritoneum with phosphate buffered saline (PBS), cells were washed, transferred to 60 mm culture plates and incubated at 37° C. in RPMI 1640 media (Life Technologies) containing 10% FBS, 2 mmol/L glutamine, 100 μg/mL streptomycin and 100 IU penicillin (Life Technologies). After 5 hours at 37° C., cells were washed 5 times with PBS to remove non-adherent cells and adherent cells were further incubated in RPMI 1640 media supplemented with 10% FBS for 24 hours. To determine the mRNA levels of LXRα and LXRβ, after 24 hours total RNA was isolated from cultured macrophages using RNeasy kits (QIAGEN Inc.) according to the supplier's total RNA isolation procedure. The RNA samples were further treated with deoxyribonuclease I to eliminate contaminating genomic DNA. LXRα and LXRβ mRNA levels were than analyzed by real-time based quantitative PCR using Perkin Elmer ABI Prism 7700 and Sequence Detection System software (Perkin Elmer). […] To further examine LXR-dependent gene expression in macrophages, peritoneal macrophages were isolated as described above from mixed wildtype, LXRα−/− (C57BL/6), LXRβ−/−, and LXRαβ−/− mice. After removal of non-adherent cells, the remaining macrophages were than cultured in either the absence or presence of LXR pan-agonist (1.0 μM Compound 1) for 24 hours. At the end of the experiment total RNA was isolated from cultured macrophages using RNeasy kits (QIAGEN Inc.) according to the supplier's total RNA isolation procedure. RNA samples were further treated with deoxyribonuclease I to eliminate contaminating genomic DNA before use. The LXR agonist-dependent induction of the ABCA1 and ABCG1 mRNAs were than analyzed by real-time based quantitative PCR using Perkin Elmer ABI Prism 7700 and Sequence Detection System software (Perkin Elmer). ABCA1 and ABCG1 function as efflux pumps that mediate the transfer of intracellular cholesterol out of cells to HDL particles, a process referred to as reverse cholesterol transport. […] Elimination of LXRα activity (LXRα−/−) has no effect on the agonist-dependent response. In contrast, elimination of LXRβ activity (LXRβ−/−) reduces the agonist-dependent induction of ABCA1 by 82% and the ABCG1 induction by 50%. […] Thus LXRβ alone is sufficient to allow the maximum induction of ABCA1 and ABCG1 in peritoneal macrophages.

With `O=S(=O)(c1ccccc1)N(CC(F)(F)F)c1ccc(C(O)(C(F)(F)F)C(F)(F)F)cc1` [Compound 1, N-(2,2,2-trifluoroethyl)-N-[4-(2,2,2-trifluoro-1-hydroxy-1-trifluoromethylethyl)-phenyl]-benzene sulfonamide] the “CYP7a mRNA induction” value (CYP7a mRNA; LXRαβ−/− mice) was “no induction”, the “CYP7a mRNA induction” value (CYP7a mRNA; LXRα−/− mice) was “can induce transcription of the CYP7a gene” and the “CYP7a induction level relative to wildtype agonist-treated mice” value (CYP7a mRNA; LXRβ alone (LXRα−/− mice)) was 20%-50%. For the same compound, the “CYP7a mRNA induction” value (CYP7a mRNA; LXRβ−/− mice) was “can induce transcription of the CYP7a gene”, the “CYP7a mRNA induction” value (CYP7a mRNA; wildtype mice) was “can induce transcription of the CYP7a gene” and the “effect on plasma glucose (hyperglycemia)” value [1] was “significantly reduces hyperglycemia in db/db mice”. The “agonist-dependent ABCA1 mRNA induction” value (ABCA1 mRNA; LXRαβ−/− macrophages, 1.0 μM) was “completely blocks the response”, the “agonist-dependent ABCA1 mRNA induction” value (ABCA1 mRNA; LXRα−/− macrophages, 1.0 μM) was “no effect” and the “reduction of agonist-dependent induction of ABCA1” value (ABCA1 mRNA; LXRβ−/− macrophages versus wildtype, 1.0 μM) was 82%. It also gave a fold induction at 1 µM (ABCA1 mRNA; Mus musculus, Macrophage, wildtype macrophages) of 28.
